Experimental data from patent US9045490B2, “Use of parthenolide derivatives as antileukemic and cytotoxic agents” (University of Kentucky, priority 2003, dated 2015).

Columns and labels:
Type in all cases: cell-based
[1] = test system: MDA-MB-231 breast cancer cells; assay: TRAIL induced apoptosis assay (carboxyfluorescein-FLICA, FACScan); conditions: 2 or 5 μM pre-treatment two hours, then TRAIL 5 ng/ml or TRAIL-RII antibodies 10 ng/ml, 48 hours
Experimental: MDA-MB-231 breast cancer cells (2×10^5 cells in 60 mm plates) were treated first with 2 or 5 μM of DMAPT (LC-1). After two hours, TRAIL (TNF related-apoptosis-inducing-ligand, 5 ng/ml) or TRAIL-RII-activating antibodies (10 ng/ml) were added. After 48 hours of TRAIL or TRAIL-RII antibody treatment, cells were harvested and apoptosis was measured using carboxyfluorescein-FLICA assay. Briefly, both attached and floating cells were collected by trypsinization, incubated with carboxyfluorescein-labeled pan-caspase inhibitor FAM-VAD-FMK for 2 h at 37° C. Labeled cells were rinsed twice in PBS and resuspended in 300 μl of PBS containing 0.3 μg of propidium iodide. Apoptotic cells were identified by FACScan analysis. […] FAM-VAD-FMK stains apoptotic cells (upper left). Apoptotic cells that have lost plasma membrane integrity are stained by both FAM-VAD-FMK and propidium iodide (upper right). Necrotic cells are stained only by propidium iodide (lower right). MDA-MB-231 cells are relatively resistant to TRAIL.

[2] = test system: breast cancer cell line hbl-100; assay: Clonogenic assay; conditions: hbl-100, 2 μm concentration (parthenolide: similar dosage ranges)
[3] = test system: human monocyte cell line THP-1; assay: cDNA array analysis of inflammation genes
Experimental: Total cellular RNA was extracted from the human monocyte cell line THP-1 under three conditions 2 hours after Time 0:
1) Control was added at Time 0 […]
RNA was extracted using RNeasy Min Kit (Qiagen, USA) according to the manufacturer's instructions. The Human Drug Targets for Inflammation and Immunomodulation Q series GE array kit (HS-048-12) was obtained from SuperArray Bioscience Corporation (Frederick, Md.). The kit determines expression of 96 genes that are associated with inflammation. RNA from respective samples was used as a template to generate biotin labeled cDNA probes using GEArray Ampolabelling RT kit (SuperArray, Bioscience Corp., USA). The cDNA probes corresponding to the mRNA population were then denatured and hybridization was carried out in GEHyb solution to nylon membranes spotted with gene specific fragments. Membranes were then washed in 2×SSC, 1% SDS twice for 15 minutes each, followed by 0.1 SSC, 0.5% SDS twice for 15 minutes each. Chemiluminescence was used to visualize the expression levels of each transcript and the results were quantified with the GEArray Analyzer. The change in a given gene transcript was estimated by normalizing the signal intensities with the signal derived from PPIA and with minimum background subtraction.

[4] = test system: breast cancer cell line mdl-231; assay: Clonogenic assay; conditions: mdl-231, 2 μm concentration (parthenolide: similar dosage ranges)
[5] = DMAPT (10 micromoles) pre-treatment for 2 hours then 1 hour treatment of LPS (10 nM)

`C/C1=C\CC[C@@]2(C)O[C@@H]2[C@H]2OC(=O)[C@H](CN(C)C)[C@@H]2CC1` [DMAPT, 11S,11,13-Dihydro,13-dimethylaminoparthenolide] was tested, and the “sensitisation to TRAIL or TRAIL-RII activating antibody-induced apoptosis” value [1] was “became sensitive”, the inhibition of proliferation [2] was “almost complete inhibition” and the “% Change of Genes: Intercellular Adhesion Molecule 1” value [3, 5] was 58%. For the same molecule, the “% Change of Genes: Nitric oxide synthase 2A (inducible)” value [3, 5] was 48%, the “% Change of Genes: Tumor necrosis factor (ligand) superfamily, member 5” value [3, 5] was 23% and the “transcription of tumor necrosis factor (TNF), relative to control” value ([3]; pretreatment with DMAPT, then LPS) was 2 % of control. For the same molecule, the inhibition of proliferation [4] was “almost complete inhibition”.
